Reference: patent publication US4931437A, “8-azaxanthine derivatives, and pharmaceutical compositions containing them” (Malesci Istituto Farmacobiologico S.p.A., priority 1986, dated 1990)
Like-named read-outs stand apart in the source and are kept apart here.

Key:
[1] = Acute toxicity (oral LD50); set-up: species or system male Swiss mice; conditions: in vivo, mouse, deaths in ten days, Litchfield and Wilcoxon, limits in parentheses, max dose generally 500 mg/Kg, read-out: DL/50 (mouse os)
Description: LD50 was calculated according to Litchfield and Wilcoxon method (J. Pharm. Expt. Ther. 96, 99; 1949). The maximum dose administered was generally 500 mg/Kg.

[2] = tested on: bronchospasm; test: Antibronchospastic activity (aerosol ovalbumin, sensitized guinea pigs, oral); format: in vivo, guinea pig; conditions: for Oral antibronchospastic activity (aerosol ovalbumin guinea-pig) A.U.C. 0 → 3h Index: ratio between equieffective doses of theophylline and tested compound, AUC of % inhibition 0-3 h
Description: Fasted (16 h) male and female guinea pigs were sensitized by ovalbumin (25 mg/Kg. s.c. and 25 mg/Kg. i.p.) (Herxheimer and Stresemann--Arch. It. Pharmacodyn. Ther. 125.126; 1960). After two weeks, animals were challenged, by an aerosol of 0.5% ovalbumin recording the latency time (T1) of the first bronchospasm. A week later, the test was repeated in the same animals 1-3 hours after drug administration (T2). % of inhibition was determined as [formula] where T1 was control latency time, T2 was latency time after drug administration. […] The area under curve (AUC) expressing the % inhibition plotted toward time (0-3 h) after drug dosing, was calculated.

[3] = tested on: heart rate and blood pressure; conditions: in vivo, po
Description: Fasted (16 h) normotensive male Wistar rats weighing 300-380 g. were used. The animals were prewarmed by means of infrared lamp for 15 min. before recording blood pressure and heart rate with the tale-cuff method (Maffii G. e Coll.--Arch. It. Sci. Farm. 12, 3; 1962). Recording were performed before and 30'-90'--3 h after oral drug administration. […] The % increase in heart rate was plotted against the log dose. […] In table 2 the average value of the indexes was reported.

[4] = Effects on CNS: cardiazole (CZ) induced convulsions; conditions: mouse, in vivo, po
Description: (§1) Fasted (20 h) male Swiss mice (20 g b.w.) received orally the compounds 1 h before cardiazole (CZ) or chlordiazepoxide (CDO) administration.
CZ was injected i.p. in a fully convulsive dose which produced death in about 10% of animals (60-100 mg/Kg.). Appropriate dose was determined before each experimental session.
(§2) In the untreated animals, CDO 100 mg/Kg i.p. induced sleep lasting 20-30 min. Sleeping time was defined as the time elapsing from the loss to the recovery of the righting reflex. Pretreated animals were observed up to a maximum of 6 h.

[5] = Effects on CNS: sleeping time following chlordiazepoxide (CDO) treatment; conditions: mouse, in vivo, po
Description: as §1, §2

Row | Compound | LD50 at 240 h [1] | Oral antibronchospastic activity (aerosol ovalbumin guinea-pig) A.U.C. 0 → 3h Index [2] | Tachycardic effects (rat os) Index [3] | also measured
1 | CCCn1c(=O)c2c(nnn2CCN(CC)CC)n(-c2ccccc2)c1=O [MX8257] | > 1350 µmol/kg | 1,8 | 0 | –
2 | CCCn1c(=O)c2nn(CCN(CC)CC)nc2n(-c2ccccc2)c1=O [MX8258] | > 1350 µmol/kg | 1,6 | 0 | –
3 | CCCn1c(=O)c2c(nnn2CCN(C)C)n(CC(C)CC)c1=O (centres unmarked) [MX8271] | > 1480 µmol/kg | 1,9 | 0 | –
4 | CCCn1c(=O)c2nn(CCN(C)C)nc2n(CC(C)CC)c1=O (centres unmarked) [MX8272] | 1370 µmol/kg | 2,1 | 0 | –
5 | CCCn1c(=O)c2c(nnn2CCN2CCCCC2)n(-c2ccccc2)c1=O [MX82103] | 910 µmol/kg | 1,7 | 0 | –
6 | CCCn1c(=O)c2nn(CCN3CCCCC3)nc2n(-c2ccccc2)c1=O [MX82104] | 1310 µmol/kg | 2,1 | 0 | –
7 | CCCn1c(=O)c2c(nnn2CCN2CCOCC2)n(-c2ccccc2)c1=O [MX82105, 1-n-propyl-3-phenyl-7-(2-morpholinoethyl)-8-azaxanthine] | > 1300 µmol/kg | 2,4 | 0 | –
8 | CCCn1c(=O)c2nn(CCN3CCOCC3)nc2n(-c2ccccc2)c1=O [MX82106, 1-n-propyl-3-phenyl-8-(2-morpholinoethyl)-8-azaxanthine] | > 1300 µmol/kg | 2,9 | 0 | –
9 | CCC(C)Cn1c(=O)[nH]c(=O)c2c1nnn2CCN(CC)CC (centres unmarked) [MX82108] | > 1550 µmol/kg | 1,3 | 0 | –
10 | CCC(C)Cn1c(=O)[nH]c(=O)c2nn(CCN(CC)CC)nc21 (centres unmarked) [MX82109] | > 1550 µmol/kg | 1,1 | 0,3 | –
11 | Cn1c(=O)c2[nH]cnc2n(C)c1=O [THEOPHYLLINE, 1.3-dimethylxanthine, reference compound] | – | – | – | ED50 ([2]; Cavia porcellus, po, guinea pig, 0.5% ovalbumin aerosol, read-out: ED50, inhibition of bronchoconstriction): 250 µmol/kg; blood pressure effect ([3]; rat): slight hypotension; heart rate effect ([3]; rat): marked dose-dependent tachycardia; dosage producing a 30% increase in heart rate ([3]; rat, 30 min): 0.21 mmol/kg; dosage producing a 30% increase in heart rate ([3]; rat, 90 min): 0.36 mmol/kg; dosage producing a 30% increase in heart rate ([3]; rat, 180 min): 0.57 mmol/kg; ED50 [4]: 150 µmol/kg; ED50 [5]: 75 µmol/kg
